Here are results for 35 molecules from US11945806B2, “Stabilization of amyloidogenic immunoglobulin light chains” (The Scripps Research Institute, priority 2019, dated 2024).

Assay [1] has as its system WIL-FL*. The assay can be described thus: FP artefact counterscreen (compounds added after 24 h of proteinase K treatment). The class given is biochemical, human. The arrangement: concentration or dose not given beside the values. To be noted: compound added after 24 h PK treatment; mean ± sd, n=3. The procedure:
Secondly, to remove compounds that interfere with the FP measurement, the primary screen was repeated in triplicate but compounds were added after 24 h of proteinase K treatment (FIG. 1f). […] Bona fide hits should retain no FP beyond the low control.

Assay [2] deals with T1, WIL-FL* (Homo sapiens, UniProt P01721, K101C, form not given). Briefly: Protease-coupled fluorescence polarization (PCFP) assay with proteinase K. The settings on record: for EC50: from dose response curves measured during the screening process. Background: In fluorescence polarisation assays a small probe gives low polarisation when free and higher when bound to something large.

The target in assay [3] is T1, WIL-FL*. The assay can be described thus: PCFP assay with thermolysin. To be noted: mean ± sd, n=3; 6.75 μM compound.
Protocol: Thirdly, to remove molecules that inhibit proteinase K, the assay was repeated in triplicate using 100 nM thermolysin (Thermo). […] The additional metal ions were added to bind to ion-chelating small molecules and prevent them from inhibiting the metalloproteinase.
To identify and exclude molecules that interfered with FP measurements, the assay was repeated, but candidate stabilizers were not added until after 24 h of PK treatment (FIG. 1f). […] Thermolysin is a broad-spectrum metalloprotease that is likely not inhibited by compounds that inhibit PK, a serine protease.
The next assay has as its target WIL-FL (Homo sapiens, UniProt P01721). The assay can be described thus: Unlabeled LC Protease Sensitivity Assay (proteinase K). To be noted: small molecule 10 μM, WIL-FL 5 μM, proteinase K 50 nM, 2 hours at 37° C. It counts as biochemical. The method in brief: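 WIL-FL light chain (5 μM) in PBS pH 7.4 + 0.02% Pluronic F-127 digested with proteinase K (50 nM) for 2 h at 37 °C with 10 μM compound (1% DMSO). Intact WIL-FL quantified by size-exclusion UPLC (A280). Fold protection = (A_compound−A_vehicle)/(A_no_protease−A_vehicle) from peak areas.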

The mark [4] stands for this setting: secondary screen, mean ± sd, n=3, 6.75 μM compound, FP retention after 24 h at 22° C., normalized to high and low controls.
[5] abbreviates: Primary screen, n=1, 6.75 μM compound.

In the case of `CC(Oc1ccc2ccc(=O)oc2c1)c1ccccc1` (stereo not drawn) [Compound 15], the “Counterscreen activity (%)” value in the assay on WIL-FL* [1] is recorded as −4.35 ± 5.6%. On WIL-FL* [2], this molecule yielded an EC50 of 9.28 µM. Moreover, the “PK activity (%)” value at WIL-FL* [2] (setting [4]) is 34.2 ± 3.0%. In addition, the “Thermolysin activity (%)” value at WIL-FL* [3] is 18.3 ± 4.9%.

On to `CCOC(=O)Cc1c(C)c2ccc(N(CC)CC)cc2oc1=O` [Compound 2], for which, in the assay with WIL-FL* [1], the “Counterscreen activity (%)” value is −4.13 ± 5.2%. Also, the EC50 on WIL-FL* [2] amounted to 6.92 µM. Further, the “PK activity (%)” value at WIL-FL* [2] (setting [4]) stood at 37.8 ± 1.4%. Also, on WIL-FL* [3], the “Thermolysin activity (%)” value turned out to be 33.8 ± 3.1%.

Regarding `O=c1ccc2ccccc2o1` [Compound 21], the “PK activity (%)” value on WIL-FL* [2] (setting [5]) is given as 2.58 (Primary screen) %.

As to `CC(=O)c1ccc(S(=O)(=O)c2ccccc2)cc1` [Compound 18], the “PK activity (%)” value at WIL-FL* [2] (10 μM in pilot screen, n=1) is given as 46.5 (10 μM in pilot screen) %. The molecule further registered an EC50 at WIL-FL* [2] of 18 µM.

For the molecule `CCN(CC)c1ccc2c(C)c(CN3CCOCC3)c(=O)oc2c1` [Compound 12], the “Counterscreen activity (%)” value in the assay with WIL-FL* [1] is recorded as 0.41 ± 2.5%. The same molecule showed an EC50 at WIL-FL* [2] of 11.3 µM. In addition, the “PK activity (%)” value on WIL-FL* [2] (setting [4]) is given as 37.2 ± 7.3%. Also, the “Thermolysin activity (%)” value on WIL-FL* [3] is on record as 30.2 ± 4.2%.

On to `CCN(CC)c1ccc2c(C)c(CC(C)=O)c(=O)oc2c1` [Compound 14], for which the “Counterscreen activity (%)” value with WIL-FL* [1] came to 1.67 ± 4.7%. At WIL-FL* [2], the EC50 is 9.04 µM. The “PK activity (%)” value on WIL-FL* [2] (setting [4]) worked out at 41.9 ± 3.0%. Besides, the “Thermolysin activity (%)” value on WIL-FL* [3] came out at 34.8 ± 3.1%.

`CCN(CC)c1ccc2c(C)c(I)c(=O)oc2c1` [Compound 11]: the “Counterscreen activity (%)” value with WIL-FL* [1] amounted to 0.94 ± 3.9%. Also, the EC50 on WIL-FL* [2] was determined as 4.18 µM. On WIL-FL* [2] (setting [4]), the “PK activity (%)” value was 58.7 ± 2.0%. In addition, on WIL-FL* [3], the “Thermolysin activity (%)” value stood at 45.7 ± 7.0%.

As for `CC(=O)c1ccn(S(=O)(=O)c2ccccc2)c1` [Compound 17], on WIL-FL* [2] (10 μM in pilot screen, n=1), the “PK activity (%)” value is 58.1 (10 μM in pilot screen) %. The same molecule yielded an EC50 on WIL-FL* [2] of 18.5 µM.

At WIL-FL* [2], `CC(C=NNc1ccc(S(N)(=O)=O)cc1[N+](=O)[O-])c1ccccc1` (stereo not drawn) [Compound 6] showed an EC50 of 4.92 µM. Besides, the “PK activity (%)” value at WIL-FL* [2] (setting [4]) was determined as 60.8 ± 2.7%. The “Thermolysin activity (%)” value on WIL-FL* [3] was 45.1 ± 6.6%.

Regarding `CCN(CC)c1ccc2c(C)c(CCO)c(=O)oc2c1` [Compound 53, 7-(diethylamino)-3-(2-hydroxyethyl)-4-methyl-2H-chromen-2-one], on WIL-FL, the “Protection (fold protection of LC from protease)” value is given as “A (A < 0.3))”.

As for `CCN(CC)c1ccc2c(C)c(CCNC(=O)NCc3nccc4ccccc34)c(=O)oc2c1` [Compound 290, 1-(2-(7-(diethylamino)-4-methyl-2-oxo-2H-chromen-3-yl)ethyl)-3-(isoquinolin-1-ylmethyl)urea], the “Protection (fold protection of LC from protease)” value on WIL-FL was “C (C ≥ 0.6)”.

Take `Cc1c(CN2CCOCC2)c(=O)oc2cc(OC(C)c3ccccc3)ccc12` (stereo not drawn) [Compound 152, 4-methyl-3-(morpholinomethyl)-7-(1-phenylethoxy)-2H-chromen-2-one]: the “Protection (fold protection of LC from protease)” value on WIL-FL is given as “B (3 ≤ B < 0.6)”.

With `CCN(CC)c1ccc2c(C)c(CCN3C(=O)NC4(CCN(c5ncnc6[nH]cnc56)CC4)C3=O)c(=O)oc2c1` [Compound 188, 3-(2-(7-(diethylamino)-4-methyl-2-oxo-2H-chromen-3-yl)ethyl)-8-(9H-purin-6-yl)-1,3,8-triazaspiro[4.5]decane-2,4-dione], at WIL-FL, the “Protection (fold protection of LC from protease)” value is on record as “C (C ≥ 0.6)”.

Regarding `CC(C)CC1NC(=O)N(CC(=O)Nc2ccc(C(F)(F)F)cc2)C1=O` (single isomer, unassigned) [Compound 23], at WIL-FL, the “Protection (fold protection of LC from protease)” value is on record as “A (A < 0.3))”.

Regarding `Cc1cc(=O)oc2cc(C(=O)NCCc3ccc(O)cc3)ccc12` [Compound 232, N-(4-hydroxyphenethyl)-4-methyl-2-oxo-2H-chromene-7-carboxamide], the “Protection (fold protection of LC from protease)” value on WIL-FL is reported as “A (A < 0.3))”.

As to `CCN(Cc1ccccc1)c1ccc2c(C)cc(=O)oc2c1` [Compound 35, 7-(benzyl(ethyl)amino)-4-methyl-2H-chromen-2-one], at WIL-FL, the “Protection (fold protection of LC from protease)” value is “A (A < 0.3))”.

`CCN(CC)c1ccc2c(C)c(CCOC(=O)NCc3cccc(-c4cncnc4)c3)c(=O)oc2c1` [Compound 156, 2-(7-(diethylamino)-4-methyl-2-oxo-2H-chromen-3-yl)ethyl (3-(pyrimidin-5-yl)benzyl)carbamate]: the “Protection (fold protection of LC from protease)” value on WIL-FL is given as “B (3 ≤ B < 0.6)”.

With `CCN(CC)c1ccc2c(C)c(CCOC(=O)NCC3CCNCC3)c(=O)oc2c1` [Compound 147, 2-(7-(diethylamino)-4-methyl-2-oxo-2H-chromen-3-yl)ethyl (piperidin-4-ylmethyl)carbamate], the “Protection (fold protection of LC from protease)” value on WIL-FL is on record as “B (3 ≤ B < 0.6)”.

As to `CCN(CC)c1ccc2c(C)c(CCOC(=O)NCc3cccc(-c4ccccc4OS(=O)(=O)F)c3)c(=O)oc2c1` [Compound 219, 3′-((((2-(7-(diethylamino)-4-methyl-2-oxo-2H-chromen-3-yl)ethoxy)carbonyl)amino)methyl)-[1,1′-biphenyl]-2-yl sulfurofluoridate], the “Protection (fold protection of LC from protease)” value at WIL-FL is on record as “A (A < 0.3))”.

Turning to `Cc1cc(=O)oc2cc(NCCC(F)(F)F)ccc12` [Compound 265, 4-methyl-7-((3,3,3-trifluoropropyl)amino)-2H-chromen-2-one], the “Protection (fold protection of LC from protease)” value on WIL-FL is on record as “A (A < 0.3))”.

For the molecule `O=C(CN1C(=O)CNC1=O)Nc1ccc(C(F)(F)F)cc1` [Compound 151, 2-(2,5-dioxoimidazolidin-1-yl)-N-(4-(trifluoromethyl)phenyl)acetamide], the “Protection (fold protection of LC from protease)” value on WIL-FL is listed as “A (A < 0.3))”.

As to `CCN(CC)c1ccc2c(C)c(CCOC(=O)N3CCN(c4nn[nH]n4)CC3)c(=O)oc2c1` [Compound 115, 2-(7-(diethylamino)-4-methyl-2-oxo-2H-chromen-3-yl)ethyl 4-(2H-tetrazol-5-yl)piperazine-1-carboxylate], on WIL-FL, the “Protection (fold protection of LC from protease)” value is “A (A < 0.3))”.

Turning to `Cc1c(CN2CCOCC2)c(=O)oc2cc(OCC(C)c3ccccc3)ccc12` (stereo not drawn) [Compound 183, 4-methyl-3-(morpholinomethyl)-7-(2-phenylpropoxy)-2H-chromen-2-one], the “Protection (fold protection of LC from protease)” value on WIL-FL is “B (3 ≤ B < 0.6)”.

Turning to `C#CCN(CC=C)c1ccc2c(C)cc(=O)oc2c1` [Compound 259, 7-(allyl(prop-2-yn-1-yl)amino)-4-methyl-2H-chromen-2-one], the “Protection (fold protection of LC from protease)” value on WIL-FL was “A (A < 0.3))”.

For `Cc1cc(=O)oc2cc(O)ccc12` [Compound 19], the “PK activity (%)” value on WIL-FL* [2] (setting [5]) is 2.27 (Primary screen) %.

Consider `CCN(CC)c1ccc2c(C)c(CCOC(=O)NCc3ccc(F)c(C(N)=O)c3)c(=O)oc2c1` [Compound 144, 2-(7-(diethylamino)-4-methyl-2-oxo-2H-chromen-3-yl)ethyl (3-carbamoyl-4-fluorobenzyl)carbamate], for which the “Protection (fold protection of LC from protease)” value at WIL-FL is “C (C ≥ 0.6)”.

For `CCN(CC)c1ccc2c(C)c(CCN3C(=O)NC4(CCN(C(=O)c5ccc[nH]c5=O)C4)C3=O)c(=O)oc2c1` (stereo not drawn) [Compound 182, 3-(2-(7-(diethylamino)-4-methyl-2-oxo-2H-chromen-3-yl)ethyl)-7-(2-oxo-1,2-dihydropyridine-3-carbonyl)-1,3,7-triazaspiro[4.4]nonane-2,4-dione], at WIL-FL, the “Protection (fold protection of LC from protease)” value is given as “B (3 ≤ B < 0.6)”.

Turning to `Cc1cc(=O)oc2cc(OC(C)c3cnccn3)ccc12` (stereo not drawn) [Compound 173, 4-methyl-7-(1-(pyrazin-2-yl)ethoxy)-2H-chromen-2-one], the “Protection (fold protection of LC from protease)” value on WIL-FL is on record as “A (A < 0.3))”.

`Cc1cc(=O)oc2cc(OCC(C)c3ccccc3)ccc12` (stereo not drawn) [Compound 43, 4-methyl-7-(2-phenylpropoxy)-2H-chromen-2-one]: on WIL-FL, the “Protection (fold protection of LC from protease)” value is reported as “B (3 ≤ B < 0.6)”.

Regarding `CCN(CC)c1ccc2c(C)c(CCOC(=O)NCc3cccc(-c4cccnc4)c3)c(=O)oc2c1` [Compound 161, 2-(7-(diethylamino)-4-methyl-2-oxo-2H-chromen-3-yl)ethyl (3-(pyridin-3-yl)benzyl)carbamate], the “Protection (fold protection of LC from protease)” value on WIL-FL is “C (C ≥ 0.6)”.

In the case of `CCN(CC)c1ccc2c(C)c(CCNC(=O)NCc3ccc4[nH]ccc4c3)c(=O)oc2c1` [Compound 279, 1-((1H-indol-5-yl)methyl)-3-(2-(7-(diethylamino)-4-methyl-2-oxo-2H-chromen-3-yl)ethyl)urea], the “Protection (fold protection of LC from protease)” value at WIL-FL was “A (A < 0.3))”.

For the molecule `CC(C)CC1NC(=O)N(CC(=O)Nc2ccc(C(F)(F)F)cc2)C1=O` (single isomer, unassigned) [Compound 22], at WIL-FL, the “Protection (fold protection of LC from protease)” value is “A (A < 0.3))”.

As to `Cc1cc(=O)oc2cc(NCCCF)ccc12` [Compound 251, 7-((3-fluoropropyl)amino)-4-methyl-2H-chromen-2-one], the “Protection (fold protection of LC from protease)” value on WIL-FL is “A (A < 0.3))”.

`CCN(CC)c1ccc2c(C)c(CCNC(=O)NCc3ccccn3)c(=O)oc2c1` [Compound 276, 1-(2-(7-(diethylamino)-4-methyl-2-oxo-2H-chromen-3-yl)ethyl)-3-(pyridin-2-ylmethyl)urea]: the “Protection (fold protection of LC from protease)” value at WIL-FL was “A (A < 0.3))”.

With `Cc1cc(=O)oc2cc(OC(c3ccccc3)c3ccccc3)ccc12` [Compound 42, 7-(benzhydryloxy)-4-methyl-2H-chromen-2-one], the “Protection (fold protection of LC from protease)” value on WIL-FL is “A (A < 0.3))”.

The term EC50 denotes the midpoint of the concentration-response curve.
